Experiments:
[1] = depends on administration form and/or dosage; cited from earlier work
[2] = tested on: platelet aggregation in whole blood; experiment: Platelet aggregation in whole blood evaluated by Multiplate; type: cell-based
Excerpt: FIG. 2: MultiPlate continuously records platelet aggregation. The increase of impedance by the attachment of platelets onto the Multiplate sensors is transformed to arbitrary aggregation units (AU) and plotted against time. […] Hereby, the effect on the endothelium of PGI2 can be employed in conjunction with treatment with antithrombotic agents such as Aspirin (ASA), platelet ADP—and a platelet inhibitor, such as GPIIb/IIIa receptor antagonists without increased risk of bleeding in this high-risk population. The term “Mulitplate” refers to an applied platelet aggregometer/platelet function analyzer utilizing the analysis of whole blood. Whole blood is the physiological environment where platelet function takes place in vivo, and the use of whole blood for in-vitro testing eliminates the need for time-consuming centrifugation steps required for Born aggregation measurements. The use of a small amount of whole blood (0.3 ml per test) allows the differentiated assessment of platelet function without drawing large amounts of blood (as required for analysis of Born aggregation) and facilitates the analysis of blood from children and also in experimental settings.

[3] = tested on: thrombus formation; experiment: Thrombus formation evaluated by viscoelastical haemostatic assay, thrombelastography (TEG); type: cell-based
Excerpt: FIG. 1: Recording haemostatic activity using TEG assay. […] Hereby, the effect on the endothelium of PGI2 can be employed in conjunction with treatment with antithrombotic agents such as Aspirin (ASA), platelet ADP—and a platelet inhibitor, such as GPIIb/IIIa receptor antagonists without increased risk of bleeding in this high-risk population.

**Q.** For CC#CCC(C)[C@H](O)/C=C/[C@@H]1[C@H]2c3cccc(CCCC(=O)O)c3O[C@H]2C[C@H]1O (mixture of isomers) [Beraprost], which half time [1] is on record?
**A.** 35 to 40 min

**Q.** For CC#CCC(C)[C@H](O)/C=C/[C@@H]1[C@H]2C/C(=C/CCCC(=O)O)C[C@H]2C[C@H]1O (some centres unmarked) [Iloprost], which half time [1] is on record?
**A.** 20 to 30 min

**Q.** For CSCCNc1nc(SCCC(F)(F)F)nc2c1ncn2[C@@H]1O[C@H](COP(=O)(O)OP(=O)(O)C(Cl)(Cl)P(=O)(O)O)[C@@H](O)[C@H]1O [cangrelor], which half time [1] is on record?
**A.** 3 to 5 min

**Q.** What does the source list for CCCCC[C@H](O)/C=C/[C@@H]1[C@H]2C/C(=C/CCCC(=O)O)O[C@H]2C[C@H]1O [prostacyclin]?
**A.** effect on platelet aggregation in whole blood as evaluated by MULTIPLATE [2]: does not affect platelet aggregation; effect on thrombus formation as evaluated by viscoelastical haemostatic assays such as thrombelastography (TEG) [3]: does not impair thrombus formation
